Key:
Test in all cases: relative viability (nuclei count vs DMSO), 5 days (fraction); higher = more cells survive
[1] = compound: C=CC(=O)Nc1cc(-n2c(=O)ccc3cnc4ccc(-c5ccc(NS(C)(=O)=O)cc5)cc4c32)ccc1C [BMX-IN-1] + CC(C)C[C@H](NC(=O)[C@H](Cc1ccccc1)NC(=O)c1cnccn1)B(O)O [Bortezomib] (partner 0.002 µM)
Procedure, shortened: (§1)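 Lung cancer cell lines were seeded in 1536-well plates and dosed by pin tool the next day, with either a single drug or a fixed anchor-drug dose combined with five library-drug doses (not always all listed) spaced in √10 steps. Five days later, one step fixed the cells and stained their nuclei (final 0.05% Triton X-100, 1% formaldehyde, 1 ug/ml Hoechst), and nuclei were counted on 4× images. Relative viability is the nuclei count in treated wells divided by the count in vehicle wells, and each value is the median of duplicate plates.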

[2] = compound: C=CC(=O)N1CCC[C@@H](n2nc(-c3ccc(Oc4ccccc4)cc3)c3c(N)ncnc32)C1 [Ibrutinib] + N=C(N)NC(=N)NCCc1ccccc1 [Phenformin] (partner 250 µM)
Procedure, shortened: as §1

[3] = compound: C=CCc1cccc(/C=N/NC(=O)CN2CCN(Cc3ccccc3)CC2)c1O [PAC-1] + Nc1nc2[nH]cc(CCc3ccc(C(=O)N[C@@H](CCC(=O)O)C(=O)O)cc3)c2c(=O)[nH]1 [Pemetrexed] (partner 0.2 µM)
Procedure, shortened: as §1

[4] = compound: C=CC(=O)N1CCC[C@@H](n2nc(-c3ccc(Oc4ccccc4)cc3)c3c(N)ncnc32)C1 [Ibrutinib] + COc1cccc2cc(-c3nc([C@H]4CC[C@H](C(=O)O)CC4)n4ncnc(N)c34)[nH]c12 [OSI-027] (partner 0.5 µM)
Procedure, shortened: as §1

Cell Line | relative viability ([1]; first compound 0.02 µM) | relative viability ([1]; first compound 0.2 µM) | relative viability ([1]; first compound 0.6325 µM) | relative viability ([1]; first compound 2 µM) | relative viability ([2]; first compound 0.005 µM) | relative viability ([2]; first compound 0.01581 µM) | relative viability ([2]; first compound 0.05 µM) | relative viability ([2]; first compound 0.1581 µM) | relative viability ([2]; first compound 0.5 µM) | relative viability ([3]; first compound 0.02 µM) | relative viability ([3]; first compound 0.06325 µM) | relative viability ([3]; first compound 0.2 µM) | relative viability ([3]; first compound 2 µM) | relative viability ([4]; first compound 0.005 µM) | relative viability ([4]; first compound 0.01581 µM) | relative viability ([4]; first compound 0.05 µM) | relative viability ([4]; first compound 0.1581 µM) | relative viability ([4]; first compound 0.5 µM)
EKVX | 1.42 | 1.23 | 1.11 | 1.19 | 0.224 | 0.245 | 0.226 | 0.227 | 0.13 | 0.356 | 0.407 | 0.355 | 0.395 | 0.644 | 0.663 | 0.763 | 0.737 | 0.511
EMC-BAC-2 | 1.15 | 1.1 | 1.26 | 1.1 | 0.465 | 0.509 | 0.53 | 0.571 | 0.507 | 0.49 | 0.479 | 0.46 | 0.464 | 0.33 | 0.352 | 0.403 | 0.426 | 0.405
EPLC-272H | 1.28 | 1.09 | 0.872 | 0.887 | 0.314 | 0.286 | 0.283 | 0.274 | 0.207 | 0.355 | 0.32 | 0.341 | 0.348 | 0.246 | 0.255 | 0.219 | 0.242 | 0.208
H3255 | 0.916 | 0.466 | 0.99 | 0.732 | 0.364 | 0.344 | 0.382 | 0.375 | 0.233 | 0.601 | 0.521 | 0.495 | 0.596 | 0.459 | 0.547 | 0.623 | 0.654 | 0.406
HARA | 1.14 | 1.62 | 1.16 | 1.22 | 0.445 | 0.377 | 0.357 | 0.406 | 0.331 | 0.23 | 0.234 | 0.264 | 0.239 | 0.303 | 0.437 | 0.297 | 0.38 | 0.247
HCC-15 | 1.25 | 1.06 | 1.24 | 1.1 | 0.571 | 0.477 | 0.524 | 0.408 | 0.53 | 0.216 | 0.234 | 0.247 | 0.22 | 0.654 | 0.595 | 0.689 | 0.403 | 0.757
HCC-44 | 0.902 | 1.06 | 1.07 | 0.957 | 0.138 | 0.182 | 0.148 | 0.11 | 0.232 | 0.649 | 0.615 | 0.588 | 0.684 | 0.44 | 0.517 | 0.585 | – | 0.669
HCC-78 | 0.534 | 0.474 | 0.432 | 0.546 | 0.541 | 0.787 | 0.575 | 0.616 | 0.559 | 0.915 | 0.904 | 0.85 | 0.928 | 0.309 | 0.362 | 0.36 | 0.355 | 0.308
HCC-366 | 1.88 | 1.78 | 1.28 | 1.09 | 0.63 | 0.595 | 0.593 | 0.543 | 0.665 | 0.176 | 0.162 | 0.159 | 0.164 | 0.803 | 0.84 | 0.934 | 0.802 | 0.96
